The numbers were not newly measured in patent US6034057A, “Peptide inhibitors of fibronectine” (Zeneca Limited, priority 1995, dated 2000), which cites them from elsewhere.

Bridge positions count the residues as written; N and C are the ends. Ends that are not written are not given here. * marks the point of attachment. Acetyl(1-adamantyl) = O=C(CC12CC3CC(CC(C3)C1)C2)*

Data set [1] relates to 120 kDa chymotryptic fragment of fibronectin.
The subject of data set [2] is fibronectin.
The subject of data set [3] is fibronectin. This is another data set of the same source.
The target of the next data set is αvβ3 (Homo sapiens, UniProt P05106+P06756).
For the next data set, the target named is αIIbβ IIIa (Homo sapiens, UniProt P05106+P08514).

Sequence of αvβ3 (P06756 31-889 limits assumed): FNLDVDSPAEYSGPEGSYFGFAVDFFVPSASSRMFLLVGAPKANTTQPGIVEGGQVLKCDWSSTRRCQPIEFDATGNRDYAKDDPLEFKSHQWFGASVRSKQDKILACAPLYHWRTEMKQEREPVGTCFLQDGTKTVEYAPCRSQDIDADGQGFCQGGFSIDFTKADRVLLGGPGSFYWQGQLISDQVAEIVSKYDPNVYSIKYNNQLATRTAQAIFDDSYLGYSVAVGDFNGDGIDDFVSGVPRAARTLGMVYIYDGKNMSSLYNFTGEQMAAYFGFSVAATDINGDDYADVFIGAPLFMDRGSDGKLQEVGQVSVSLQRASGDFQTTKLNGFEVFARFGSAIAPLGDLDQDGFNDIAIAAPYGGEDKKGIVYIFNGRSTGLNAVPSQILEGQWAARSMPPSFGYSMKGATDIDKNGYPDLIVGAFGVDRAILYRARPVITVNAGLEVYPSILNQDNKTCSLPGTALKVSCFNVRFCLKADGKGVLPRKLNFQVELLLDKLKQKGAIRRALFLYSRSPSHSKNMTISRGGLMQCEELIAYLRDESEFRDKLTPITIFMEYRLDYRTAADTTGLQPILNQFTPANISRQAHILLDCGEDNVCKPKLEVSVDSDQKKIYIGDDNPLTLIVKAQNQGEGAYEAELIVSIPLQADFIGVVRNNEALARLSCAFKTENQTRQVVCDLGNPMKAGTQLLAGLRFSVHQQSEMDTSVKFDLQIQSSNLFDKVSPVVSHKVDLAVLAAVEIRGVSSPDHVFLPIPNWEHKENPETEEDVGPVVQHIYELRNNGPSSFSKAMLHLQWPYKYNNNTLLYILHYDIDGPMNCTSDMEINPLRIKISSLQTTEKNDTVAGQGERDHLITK
Sequence of αvβ3 (P06756 891-1048 partner limits assumed): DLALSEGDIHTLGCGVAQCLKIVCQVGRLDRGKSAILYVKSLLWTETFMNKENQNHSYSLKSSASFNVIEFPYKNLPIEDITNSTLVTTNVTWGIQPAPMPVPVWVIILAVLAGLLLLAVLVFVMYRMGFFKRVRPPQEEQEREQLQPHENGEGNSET
Sequence of αvβ3 (P05106 27-788): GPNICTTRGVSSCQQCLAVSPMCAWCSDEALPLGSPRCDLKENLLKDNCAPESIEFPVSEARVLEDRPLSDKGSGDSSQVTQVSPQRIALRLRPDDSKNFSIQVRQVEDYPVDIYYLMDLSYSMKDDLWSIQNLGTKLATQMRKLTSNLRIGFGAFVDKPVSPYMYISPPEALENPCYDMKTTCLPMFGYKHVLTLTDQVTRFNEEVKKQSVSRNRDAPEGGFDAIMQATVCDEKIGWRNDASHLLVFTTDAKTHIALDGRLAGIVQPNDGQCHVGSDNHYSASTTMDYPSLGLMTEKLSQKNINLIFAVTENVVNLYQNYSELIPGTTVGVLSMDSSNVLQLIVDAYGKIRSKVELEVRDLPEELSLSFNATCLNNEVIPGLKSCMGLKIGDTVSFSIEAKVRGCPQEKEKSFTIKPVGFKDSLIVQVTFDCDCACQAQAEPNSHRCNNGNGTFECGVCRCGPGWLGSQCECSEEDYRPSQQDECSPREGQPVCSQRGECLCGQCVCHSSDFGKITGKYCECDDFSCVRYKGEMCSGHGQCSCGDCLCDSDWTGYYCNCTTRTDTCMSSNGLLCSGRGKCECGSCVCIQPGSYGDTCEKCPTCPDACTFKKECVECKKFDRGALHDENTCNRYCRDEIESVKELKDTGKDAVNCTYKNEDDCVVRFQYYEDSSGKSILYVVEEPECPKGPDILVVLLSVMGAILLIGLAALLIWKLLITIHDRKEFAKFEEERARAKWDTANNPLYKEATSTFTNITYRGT

On to Arg-Cys-Asp-thioproline-Cys, for which the “inhibition of binding to the 120 kDa chymotryptic fragment of fibronectin” value in data set [1] is listed as “inhibited the binding to the 120 kDa chymotryptic fragment of fibronectin”. Moreover, in the data set with fibronectin [2], the “inhibition of leukocyte cell adhesion to fibronectin” value is recorded as “inhibitor of leukocyte cell adhesion to fibronectin”.
Regarding “1-adamantaneacetyl-Cys-Gly-Arg-Gly-Asp-Ser-Pro-Cys ({Acetyl(1-adamantyl)}-CGRGDSPC; disulfide 1-8 (inferred))”, the “inhibition of binding of Jurkat cells to fibronectin coated plates” value with fibronectin [3] was “inhibited the binding of Jurkat cells to fibronectin coated plates”. For the same substance, in the data set with αvβ3, the “inhibition of function in αvβ3-dependent assay” value is reported as “inhibited function”. Besides, the “inhibition of function in αIIbβ IIIa-dependent assay” value with αIIbβ IIIa was “inhibited function”.
